In ChEMBL document CHEMBL1201862, “PubChem BioAssay data set” (2004):
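A five-concentration, 48-hour dose response in 96-well plates underlies each endpoint, interpolated linearly between surrounding concentrations. GI50 marks 50% less growth.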 Active and inactive are the calls of the source. Cut-off read from the data, not from the text of the source: active = GI50 up to about 1.1 µM and inactive = higher.

Tests used:
Assay in all cases: growth of human tumour cells (NCI), 48 h
HOP-62 = tested on: HOP-62
UACC-257 = tested on: UACC-257
UO-31 = tested on: UO-31
OVCAR-4 = tested on: OVCAR-4
MCF7 = tested on: MCF7
HOP-92 = tested on: HOP-92
SF-539 = tested on: SF-539
NCI-H23 = tested on: NCI-H23
SK-OV-3 = tested on: SK-OV-3
HL-60 = tested on: HL-60
SNB-75 = tested on: SNB-75
SF-295 = tested on: SF-295
786-0 = tested on: 786-0
M14 = tested on: M14
IGROV-1 = tested on: IGROV-1
SK-MEL-2 = tested on: SK-MEL-2
T47D = tested on: T47D
U-251 = tested on: U-251
PC-3 = tested on: PC-3

SMILES | GI50 (HOP-62) | GI50 (UACC-257) | GI50 (UO-31) | GI50 (OVCAR-4) | GI50 (MCF7) | GI50 (HOP-92) | GI50 (SF-539) | GI50 (NCI-H23) | GI50 (SK-OV-3) | GI50 (HL-60) | GI50 (SNB-75) | GI50 (SF-295) | GI50 (786-0) | GI50 (M14) | GI50 (IGROV-1) | GI50 (SK-MEL-2) | GI50 (T47D) | GI50 (U-251) | GI50 (PC-3)
CSC[S+]([O-])C[C@H](CO)NC(=O)/C=C/c1c(C)[nH]c(=O)[nH]c1=O (stereo partly specified) | 1.15 µM (inactive) | 1.38 µM (inactive) | 1.61 µM (inactive) | 0.251 µM (active) | 1.8 µM (inactive) | 0.257 µM (active) | 0.741 µM (active) | 0.644 µM (active) | 1.25 µM (inactive) | 1.2 µM (inactive) | 0.236 µM (active) | 0.457 µM (active) | 1.74 µM (inactive) | 1.16 µM (inactive) | 0.614 µM (active) | 1.08 µM (active) | – | – | –
Cc1cnc(Cl)nc1C(C#N)c1nc2ccccc2n1C (stereo unspecified) | 55.7 µM (inactive) | > 100 µM (inactive) | > 100 µM (inactive) | 49.1 µM (inactive) | – | > 100 µM (inactive) | 31 µM (inactive) | 66.7 µM (inactive) | > 100 µM (inactive) | – | 10.1 µM (inactive) | > 100 µM (inactive) | 44.4 µM (inactive) | > 100 µM (inactive) | 33.4 µM (inactive) | – | 84.9 µM (inactive) | 19.5 µM (inactive) | –
CCCCCCCCCCCCC(Br)C(=O)SCCNC(=O)CCNC(=O)[C@@H](O)C(C)(C)COP(=O)(O)OP(=O)(O)OCC1OC(n2cnc3c(N)ncnc32)C(O)C1OP(=O)(O)O (stereo partly specified) | > 56.5 µM (inactive) | 14.6 µM (inactive) | > 56.5 µM (inactive) | > 56.5 µM (inactive) | – | > 56.5 µM (inactive) | > 56.5 µM (inactive) | > 56.5 µM (inactive) | > 56.5 µM (inactive) | > 56.5 µM (inactive) | > 56.5 µM (inactive) | > 56.5 µM (inactive) | > 56.5 µM (inactive) | > 56.5 µM (inactive) | > 56.5 µM (inactive) | > 56.5 µM (inactive) | – | 33.7 µM (inactive) | –
Fc1ccc2c(c1)cc1ccc3cccc4ccc2c1c34 | > 100 µM (inactive) | > 100 µM (inactive) | > 100 µM (inactive) | > 100 µM (inactive) | – | > 100 µM (inactive) | > 100 µM (inactive) | > 100 µM (inactive) | > 100 µM (inactive) | > 100 µM (inactive) | > 100 µM (inactive) | > 100 µM (inactive) | > 100 µM (inactive) | > 100 µM (inactive) | > 100 µM (inactive) | > 100 µM (inactive) | – | > 100 µM (inactive) | –
CCOC(=O)C(=O)Nc1ccc(Cl)cc1C | > 100 µM (inactive) | > 100 µM (inactive) | > 100 µM (inactive) | > 100 µM (inactive) | – | > 100 µM (inactive) | > 100 µM (inactive) | > 100 µM (inactive) | > 100 µM (inactive) | > 100 µM (inactive) | > 100 µM (inactive) | > 100 µM (inactive) | > 100 µM (inactive) | > 100 µM (inactive) | > 100 µM (inactive) | > 100 µM (inactive) | – | > 100 µM (inactive) | –
CC1=C(C(=O)Nc2ccccc2)C(c2ccccc2)C(C(=O)Nc2ccccc2)=C(C)N1 | > 100 µM (inactive) | 36.1 µM (inactive) | 71.6 µM (inactive) | 60.7 µM (inactive) | – | 29.3 µM (inactive) | > 100 µM (inactive) | 43.1 µM (inactive) | > 100 µM (inactive) | 16.3 µM (inactive) | 37.3 µM (inactive) | 38.5 µM (inactive) | 76.4 µM (inactive) | 31.5 µM (inactive) | 75.9 µM (inactive) | 32.1 µM (inactive) | – | 48.1 µM (inactive) | –
CC(=O)Nc1ccccc1S(=O)(=O)c1ccccc1 | > 100 µM (inactive) | > 100 µM (inactive) | > 100 µM (inactive) | > 100 µM (inactive) | – | 43.9 µM (inactive) | > 100 µM (inactive) | > 100 µM (inactive) | > 100 µM (inactive) | > 100 µM (inactive) | > 100 µM (inactive) | > 100 µM (inactive) | > 100 µM (inactive) | > 100 µM (inactive) | > 100 µM (inactive) | > 100 µM (inactive) | – | > 100 µM (inactive) | –
N[C@H]1CCN(c2c(F)cc3c(=O)c(C(=O)O)cn4c3c2Oc2cc3c(ccc5ccccc53)cc2-4)C1 | 4.06 µM (inactive) | 4.9 µM (inactive) | 4.79 µM (inactive) | 5.25 µM (inactive) | 2.63 µM (inactive) | 2.59 µM (inactive) | 1.7 µM (inactive) | 4.83 µM (inactive) | 5.61 µM (inactive) | 3.79 µM (inactive) | – | 2.98 µM (inactive) | 2.88 µM (inactive) | 4.68 µM (inactive) | 2.59 µM (inactive) | 2.96 µM (inactive) | – | 1.39 µM (inactive) | 2.17 µM (inactive)
COc1ccc2ccc3c(c2c1)CN1CCc2cc(OC)c(OC)cc2C1C3 (stereo unspecified) | > 100 µM (inactive) | > 100 µM (inactive) | > 100 µM (inactive) | > 100 µM (inactive) | – | > 100 µM (inactive) | > 100 µM (inactive) | > 100 µM (inactive) | > 100 µM (inactive) | > 100 µM (inactive) | 28.1 µM (inactive) | > 100 µM (inactive) | > 100 µM (inactive) | > 100 µM (inactive) | > 100 µM (inactive) | > 100 µM (inactive) | – | > 100 µM (inactive) | –
Nn1c(CCCCCCCCc2nnc(COc3ccc4ccccc4c3O)n2N)nnc1COc1ccc2ccccc2c1O | – | 39.9 µM (inactive) | 28.4 µM (inactive) | 34.1 µM (inactive) | 27.2 µM (inactive) | 17.3 µM (inactive) | – | 16 µM (inactive) | 44 µM (inactive) | – | 51.1 µM (inactive) | 28.6 µM (inactive) | 33.9 µM (inactive) | 30.1 µM (inactive) | 4.92 µM (inactive) | 32.1 µM (inactive) | – | 41.4 µM (inactive) | 26.7 µM (inactive)
CC12CO[C@@](C)(CC(S(=O)(=O)c3ccccc3)C1)O2 (stereo partly specified) | > 100 µM (inactive) | > 100 µM (inactive) | > 100 µM (inactive) | > 100 µM (inactive) | – | > 100 µM (inactive) | > 100 µM (inactive) | > 100 µM (inactive) | > 100 µM (inactive) | > 100 µM (inactive) | 37 µM (inactive) | > 100 µM (inactive) | > 100 µM (inactive) | > 100 µM (inactive) | > 100 µM (inactive) | > 100 µM (inactive) | – | > 100 µM (inactive) | –
[O-][n+]1c(-c2ccccc2)oc2ccccc21 | 20.4 µM (inactive) | 7.71 µM (inactive) | 13.1 µM (inactive) | 24.5 µM (inactive) | – | > 100 µM (inactive) | 16.3 µM (inactive) | 11.3 µM (inactive) | > 67.5 µM (inactive) | 5.28 µM (inactive) | 16.7 µM (inactive) | 14 µM (inactive) | 22.6 µM (inactive) | 11 µM (inactive) | 34.1 µM (inactive) | 17.7 µM (inactive) | – | 18.9 µM (inactive) | –
